Assay results as given in patent publication US4091213A, “7-Cyclizedamino-3-heterothiomethyl cephalosporin derivatives” (Bristol-Myers Company, priority 1977, dated 1978).

Columns and labels:
[1] = Paper chromatograms of rat urine following IM administration, antibiotically active metabolites; assay type: in vivo; settings: urine 0-2 and 2-4 hours; for antibiotically active metabolites in urine (spots on paper chromatogram): system No. 9 (butyl acetate:n-butanol:glacial acetic acid:H2O)
Experimental: Paper chromatograms were run on rat urine collected between 0 and 2 and between 2 and 4 hours following IM administration of BL-S1057, 1058 and 643, for the detection of antibiotically active metabolites using descending chromatography with system No. 9 (butyl acetate:n-butanol:glacial acetic acid:H2 O = 80:15:40:24).

[2] = Paper strip chromatography; assay type: physicochemical; settings: 37° C.; 0 and 1 hour; 0.2 mg./ml.
[3] = Liquid chromatography, hydrolysis in buffer; assay type: physicochemical; settings: pH 6 buffer; 1 mg./ml.; 0 hours
Experimental: f. Liquid chromatography = 100% hydrolyzed in pH 6.1 buffer within 1 hour at room temperature (concentration = 1 mg./ml.)
d. Liquid chromatography (1 mg./ml. in pH 6 buffer)

hydrolysis of the derivatives to the parent compound (BL-S643) [1] | antibiotically active metabolites in urine (spots on paper chromatogram) [1] | % Hydrolyzed (liquid chromatography) [3] [%] | SMILES | Paper strip chromatography [2]
complete hydrolysis | A single, identical spot was observed | – | Cc1nnc(SCC2=C(C(=O)O)N3C(=O)C(N4C(=O)[C@@H](c5ccc(O)cc5)NC4c4ccco4)C3SC2)s1 (some centres unmarked) [BL-S1057] | Primarily 1 zone at Rf of BL-S643
complete hydrolysis | A single, identical spot was observed | 25.4 | Cc1nnc(SCC2=C(C(=O)O)N3C(=O)C(N4C(=O)[C@@H](c5ccc(O)cc5)NC4c4ccc(S(=O)(=O)O)o4)C3SC2)s1 (some centres unmarked) [BL-S1058] | Primarily 1 zone at Rf of BL-S643 at 0 and 1 hour at 37 °C (concentration is 0.2 mg./ml.) There is evidence of a second zone
– | A single, identical spot was observed | – | Cc1nnc(SCC2=C(C(=O)O)N3C(=O)C(NC(=O)[C@H](N)c4ccc(O)cc4)C3SC2)s1 (some centres unmarked) [BL-S643, reference compound] | –
